Measurements taken from patent US20140255517A1, “MANAGING POST-TRAUMATIC STRESS DISORDER” (EMORY UNIVERSITY, priority 2013, published 2014).
Entries after “also recorded” stand apart in the source; their conditions may differ.

What was measured:
Type in all cases: in vivo, mice
[1] = test system: animal model of PTSD-like symptoms; experiment: Cued Pavlovian fear conditioning, extinction training and extinction retention after acute losartan
Description: 24 hr following fear acquisition, losartan (1 mg/kg or 10 mg/kg i.p) was given prior to extinction training (B, E; n=20-25/group). 24 hr following extinction training, and in the absence of drug, mice were tested for extinction retention of learned fear, expressed as total average freezing and in blocks of 5 CS tones (C,D,F,G). To further understand the mechanism by which angiotensin II blockers reduce PTSD symptoms, the effects of the selective AT1R antagonist losartan were examined in an animal model of PTSD-like symptoms. Animals were cue-fear trained using Pavlovian fear conditioning consisting of five pairings of a conditioned stimulus (CS) tone (12 kHz) co-terminating with a shock or unconditioned stimulus (US). […] Twenty-four hours later, the effects of losartan were examined on fear expression (also considered the extinction training session) to the presentation of 15 trials of CS cues in a different context. Groups were given either losartan (1 mg/kg or 10 mg/kg i.p.) or saline 40 minutes prior to fear expression/extinction training. […] Therefore in a separate group of animals, a higher dose of losartan (10 mg/kg i.p.) was examined. […] Twenty-four hours later in the absence of drug, long-term fear memory was assessed (extinction retention).

[2] = Baseline blood pressure measured by radiotelemetry
Description: Distance traveled during open-field testing (B) and percent time in open arms of elevated plus maze test of vehicle (C) (n=6-8/group).
In order to determine whether inhibition of the renin-angiotensin system is involved in modulating fear directly or indirectly, both acute and chronic inhibition of the angiotensin type 1 receptor (AT1R) were examined using the AT1R antagonist losartan (1 mg/kg and 10 mg/kg). […] A dose of 10 mg/kg is commonly used in rodents, however the effects on baseline blood pressure are mixed. When given acutely or chronically, some studies show reductions in baseline blood pressure while others show no effect.

[3] = Anxiety-like behavior in elevated plus maze and open field tests
Description: Distance traveled during open-field testing (B) and percent time in open arms of elevated plus maze test of vehicle (C) (n=6-8/group). To determine whether losartan affects baseline levels of generalized anxiety, animals were tested in the elevated plus and open field mazes.

[4] = test system: animal model of PTSD-like symptoms; experiment: Cued Pavlovian fear conditioning and extinction after chronic losartan infusion by osmotic mini-pump
Description: Extinction training/fear expression was tested and total average freezing within the session (B) and represented in blocks of 5 CS tones (C) 24 hr following fear acquisition.
The chronic effects of AT1 R antagonism on the extinction of fear to were examined. Two-week osmotic mini-pumps were implanted and losartan (10 mg/kg/day) was subcutaneously infused. […] On day 10, animals underwent Pavlovian fear conditioning as described above.

corticosterone = experiment: Plasma corticosterone after 30 minutes of restraint stress; settings: losartan for 2 weeks vs vehicle; 30 minutes restraint stress
Description: (§1) The hypothalamic pituitary axis (HPA) stress axis could influence the level of learned fear. In order to examine the chronic effects of losartan on the HPA, stress response was examined as well as plasma renin, a measure of endogenous angiotensin II activity. Animals were exposed to 30 minutes of restraint stress and plasma levels of corticosterone and renin measured.

plasma renin = experiment: Plasma renin activity after 30 minutes of restraint stress; settings: losartan for 2 weeks vs vehicle; 30 minutes restraint stress
Description: as §1
(§2) As an index of central HPA neuronal activation, c-Fos activation was then examined in the paraventricular nucleus (PVN).

c-Fos = c-Fos activation in the paraventricular nucleus after restraint stress; settings: chronic losartan vs vehicle, t(10)=2.3, P<0.05
From the text: as §2

AT1R mRNA = experiment: Amygdala AT1R mRNA expression after extinction training (RT-qPCR); settings: chronic losartan vs vehicle, following extinction training; t(11)=2.8, P<0.05
[5] = chronic losartan 10 mg/kg/day vs vehicle

CCCCc1nc(Cl)c(CO)n1Cc1ccc(-c2ccccc2-c2nn[nH]n2)cc1 [losartan]
total average freezing during extinction training/fear expression ([1]; losartan 1 mg/kg i.p. 40 minutes prior to extinction training, vs saline): no difference in total average freezing
freezing during extinction retention testing ([1]; losartan 1 mg/kg i.p., tested 24 hours after extinction training in the absence of drug, vs saline): no freezing differences between groups
total average freezing during extinction training/fear expression ([1]; losartan 10 mg/kg i.p. 40 minutes prior to extinction training, vs saline): no differences between groups in total average freezing
total overall freezing during extinction retention ([1]; losartan 10 mg/kg i.p., 24 hours later in the absence of drug, t(48)=2.9, P<0.01): total overall freezing was significantly reduced
freezing to CS presentation during extinction retention testing (repeated-measures 2 way ANOVA, main effect of treatment) ([1]; losartan 10 mg/kg i.p., F1,144=14.6, P<0.001): significantly less freezing to CS presentation
freezing in blocks of five CS tone presentations during extinction retention (Bonferroni post hoc) ([1]; losartan 10 mg/kg i.p., P<0.05): significant reductions in freezing during the first and third blocks
baseline blood pressure ([2]; acute losartan 10 mg/kg i.p. vs saline): no effect on baseline blood pressure
baseline blood pressure [2, 5]: no differences between groups
anxiety-like behavior (distance traveled, time spent in open arms) ([3]; acute losartan 10 mg/kg i.p. 40 minutes prior to test, vs saline): No differences in anxiety-like behavior
generalized anxiety (percent time in center and distance traveled, open field test) [3, 5]: no differences between groups
acquisition of fear (percent freezing) ([4]; losartan 10 mg/kg/day subcutaneous infusion, conditioning on day 10, vs vehicle): no difference in the acquisition of fear; also recorded: acquired fear similarly to control groups
fear expression: total average freezing or blocks of 5 CS trials ([4]; losartan 10 mg/kg/day subcutaneous infusion, 24 hrs after fear acquisition): no significant difference in total average freezing
extinction retention of fear memory over the total average freezing period ([4]; losartan 10 mg/kg/day subcutaneous infusion, t(35)=2.4, P<0.05): enhanced extinction retention of fear memory
freezing to CS presentation during extinction retention testing (repeated-measures ANOVA, main effect of treatment) ([4]; losartan 10 mg/kg/day, F1,108=8.8, P<0.005): significantly less freezing to CS presentation
freezing in blocks of five CS tone presentations during extinction retention (Bonferroni post hoc) ([4]; losartan 10 mg/kg/day, P<0.05): significant reductions in freezing during the second block
plasma corticosterone levels following restraint stress (corticosterone): unaltered by losartan
plasma renin activity following restraint stress (plasma renin): unchanged by losartan
c-Fos activation in the paraventricular nucleus (PVN) (c-Fos): reduced c-Fos activation in the PVN; also recorded: less c-Fos activation in the paraventricular nucleus
amygdala AT1R mRNA expression (AT1R mRNA): significantly reduced amygdala AT1R mRNA expression; also recorded: decreased amygdala AT1 receptor mRNA expression
